Values after ≈ are worked out from the molar mass of the structure shown.
What was measured:
Neisseria meningitidis [1] = experiment: Antibacterial activity against penicillin-intermediate resistant Neisseria meningitidis clinical isolates harbouring altered penA gene after 24 hrs by Etest method; type: functional
Neisseria meningitidis [2] = experiment: Antibacterial activity against penicillin-intermediate resistant Neisseria meningitidis after 24 hrs by Etest method; type: functional

SMILES | MIC (Neisseria meningitidis [1]) | MIC (Neisseria meningitidis [2])
CC1(C)S[C@@H]2[C@H](NC(=O)[C@H](N)c3ccccc3)C(=O)N2[C@H]1C(=O)O [AMPICILLIN] | > 0.064 µg/mL | –
CO/N=C(\C(=O)N[C@@H]1C(=O)N2C(C(=O)O)=C(COC(C)=O)CS[C@H]12)c1csc(N)n1 [CEFOTAXIME] | ≤ 0.012 µg/mL | –
CC1(C)S[C@@H]2[C@H](NC(=O)Cc3ccccc3)C(=O)N2[C@H]1C(=O)O [PENICILLIN G] | > 0.094 µg/mL | 0.064 µg/mL (≈ 0.191 µM)

Source: ChEMBL document CHEMBL1152995, “Combined real-time PCR and pyrosequencing strategy for objective, sensitive, specific, and high-throughput identification of reduced susceptibility to penicillins in Neisseria meningitidis” (2008)
